Test results published in ChEMBL document CHEMBL1130001, “Quantitative structure-activity relationships among macrolide antibacterial agents: in vitro and in vivo potency against Pasteurella multocida” (J Med Chem, 1997).
Converted amounts (≈) assume the structure as drawn.

Tests used:
Pasteurella multocida [1] = format: functional
Description: Log value of the Minimum inhibitory concentration against Pasteurella multocida.

[2] = not given; remark: listed apart in the source
[3] = not given; remark: listed apart in the source
physchem [4] = assay: physchem
Description: Dissociation constant (pKa)

physchem [5] = assay: physchem; remark: listed apart in the source
Description: Dissociation constant (pKa)

physchem [6] = assay: physchem; remark: listed apart in the source
Description: Dissociation constant (pKa)

Mus musculus = organism: Mus musculus; assay: Protective dose at which 50% of infected, treated mice survive; format: functional; conditions: read-out: PD50
Pasteurella multocida [7] = assay: Minimum inhibitory concentration against Pasteurella multocida.; format: functional
Pasteurella multocida [8] = assay: Minimum inhibitory concentration against Pasteurella multocida; format: functional

Row | Structure (SMILES) | Log 1/MIC (Pasteurella multocida [1]) | pNF | pCF [2] | Log K [3] | pKa (physchem [4]) | pKa (physchem [5]) | pKa (physchem [6]) | ED50 (Mus musculus) [mg/kg] | MIC (Pasteurella multocida [7]) [µg/mL] | MIC (Pasteurella multocida [8]) [µg/mL]
1 | CC[C@H]1OC(=O)CC(O)[C@H](C)[C@@H](O[C@@H]2O[C@H](C)C[C@H](N(C)C)[C@H]2O)[C@@H](CCN(C)CCN(C)C(=O)[C@H](C)N)C[C@@H](C)C(=O)/C=C/C(C)=C/[C@@H]1C (stereo partly specified) | 4.15 | 2.391 | 0.891 | 0.02 | 8.13 | 8.9 | 6.81 |  |  | 
2 | CO[C@H]1C[C@H](O[C@H]2[C@H](C)[C@@H](O[C@@H]3O[C@H](C)C[C@H](N(C)C)[C@H]3O)[C@@H](C)CC3(CO3)C(=O)[C@H](C)[C@@H](O)[C@@H](C)[C@@H](C)OC(=O)[C@@H]2C)O[C@@H](C)[C@@H]1O (single isomer, unassigned) [OLEANDOMYCIN] |  | 1.455 | 0.015 | 0.01 |  |  | 8.84 | > 150 | 6.25 (≈ 9.09 µM) | 
3 | CC[C@H]1OC(=O)[C@H](C)[C@@H](O[C@H]2C[C@@](C)(OC)[C@@H](O)[C@H](C)O2)[C@H](C)[C@@H](O[C@@H]2O[C@H](C)C[C@H](N(C)C)[C@H]2O)[C@](C)(OC)C[C@@H](C)C(=O)[C@H](C)[C@@H](O)[C@]1(C)O [CLARITHROMYCIN] |  | 1.601 | 0.011 | 0.63 |  |  |  | 100 | 0.39 (≈ 0.521 µM) | 
4 | CC[C@H]1OC(=O)[C@H](C)[C@@H](O[C@H]2C[C@@](C)(OC)[C@@H](O)[C@H](C)O2)[C@H](C)[C@@H](O[C@@H]2O[C@H](C)C[C@H](N(C)C)[C@H]2O)[C@](C)(O)C[C@@H](C)CN(C)[C@H](C)[C@@H](O)[C@]1(C)O [AZITHROMYCIN] |  | 3.41 | 1.36 | 0.38 |  |  |  | 16 |  | 0.05 (≈ 0.0668 µM)
5 | CO[C@@H]1[C@@H](O[C@@H]2O[C@H](C)[C@@H](O[C@H]3C[C@@](C)(O)[C@@H](OC(=O)CC(C)C)[C@H](C)O3)[C@H](N(C)C)[C@H]2O)[C@@H](CC=O)C[C@@H](C)C(=O)/C=C/[C@@H]2O[C@H]2C[C@@H](C)OC(=O)C[C@H]1OC(C)=O [CARBOMYCIN A] |  | 0.419 | 0.209 | 1.48 |  |  | 7.61 | > 150 | 1.56 (≈ 1.85 µM) | 
6 | CC[C@H]1OC(=O)[C@H](C)[C@@H](O[C@H]2C[C@@](C)(OC)[C@@H](O)[C@H](C)O2)[C@H](C)[C@@H](O[C@@H]2O[C@H](C)C[C@H](N(C)C)[C@H]2O)[C@](C)(O)C[C@@H](C)C(=O)[C@H](C)[C@@H](O)[C@]1(C)O [ERYTHROMYCIN] |  | 1.494 | 0.014 | 0.35 |  |  | 8.88 | > 150 | 0.78 (≈ 1.06 µM) | 
7 | CC[C@H]1OC(=O)C[C@@H](O)[C@H](C)[C@@H](O[C@@H]2O[C@H](C)[C@@H](O)[C@H](N(C)C)[C@H]2O)[C@@H](CCN2C[C@H](C)C[C@H](C)C2)C[C@@H](C)C(=O)/C=C/C(C)=C/[C@@H]1CO[C@@H]1O[C@H](C)[C@@H](O)[C@@H](OC)[C@H]1OC [TILMICOSIN] |  | 3.007 | 0.847 | 0.26 | 9.56 |  | 8.18 | 100 | 1.56 (≈ 1.79 µM) | 
8 | CC[C@H]1OC(=O)C[C@@H](O)[C@H](C)[C@@H](O[C@@H]2O[C@H](C)C[C@H](N(C)C)[C@H]2O)[C@@H](CC=O)C[C@@H](C)C(=O)/C=C/[C@]2(C)O[C@H]2[C@@H]1C [ROSARAMICIN] |  | 1.407 | 0.017 | 0.63 |  |  | 8.79 | 68 | 0.2 (≈ 0.344 µM) | 
9 | CO[C@@H]1[C@@H](O[C@@H]2O[C@H](C)[C@@H](O[C@H]3C[C@@](C)(O)[C@@H](OC(=O)CC(C)C)[C@@H](C)O3)[C@@H](N(C)C)[C@H]2O)[C@@H](CC=O)C[C@@H](C)C(=O)/C=C/C=C/C[C@@H](C)OC(=O)C[C@H]1OC(C)=O |  |  |  |  |  |  |  | > 150 | 6.25 (≈ 7.57 µM) | 
10 | CC[C@H]1OC(=O)C[C@@H](O)[C@H](C)[C@@H](O[C@@H]2O[C@H](C)[C@@H](O[C@H]3C[C@@](C)(O)[C@@H](O)[C@H](C)O3)[C@H](N(C)C)[C@H]2O)[C@@H](CC=O)C[C@@H](C)C(=O)/C=C/C(C)=C/[C@@H]1CO[C@@H]1O[C@H](C)[C@@H](O)[C@@H](OC)[C@H]1OC [TYLOSIN] |  | 0.497 | 0.167 | 0.68 |  |  | 7.73 | 86 | 25 (≈ 27.3 µM) | 

The next lines start with results.

Row | Log 1/MIC (Pasteurella multocida [1]) | pNF | pCF [2] | Log K [3] | pKa (physchem [4]) | pKa (physchem [5]) | pKa (physchem [6]) | Structure (SMILES) | ED50 (Mus musculus) [mg/kg] | MIC (Pasteurella multocida [7]) [µg/mL] | MIC (Pasteurella multocida [8]) [µg/mL]
11 | 2.44 | 2.413 | 0.863 | -0.23 | 8.19 | 8.95 | 5.61 | CC[C@H]1OC(=O)CC(O)[C@H](C)[C@@H](O[C@@H]2O[C@H](C)C[C@H](N(C)C)[C@H]2O)[C@@H](CCN(C)CCN(C)C)C[C@@H](C)C(=O)/C=C/C(C)=C/[C@@H]1C (stereo partly specified) |  |  | 
12 | 2.39 | 1.005 | 0.045 | 0.17 |  |  | 8.36 | CC[C@H]1OC(=O)C[C@@H](O)[C@H](C)[C@@H](O[C@@H]2O[C@H](C)[C@@H](O)[C@@H](N(C)C)[C@H]2O)[C@@H](CC=O)C[C@@H](C)C(=O)/C=C/C(C)=C/[C@@H]1CO[C@@H]1O[C@H](C)[C@@H](O)[C@@H](OC)[C@H]1OC |  |  | 
13 | 3.27 | 4.138 | 1.938 | -0.12 | 8.78 | 9.6 | 7.81 | CC[C@H]1OC(=O)CC(O)[C@H](C)[C@@H](O[C@@H]2O[C@H](C)C[C@H](N(C)C)[C@H]2O)[C@@H](CCN(CCCN(C)C)C(=O)[C@H](C)N)C[C@@H](C)C(=O)/C=C/C(C)=C/[C@@H]1C (stereo partly specified) |  |  | 
14 | 3.79 | 3.437 | 1.217 | 0.1 | 9.62 |  | 8.59 | CC[C@H]1OC(=O)CC(O)[C@H](C)[C@@H](O[C@@H]2O[C@H](C)C[C@H](N(C)C)[C@H]2O)[C@@H](CCNCCO)C[C@@H](C)C(=O)/C=C/C(C)=C/[C@@H]1C (stereo partly specified) |  |  | 
15 | 3.27 | 3.067 | 1.307 | -0.16 | 8.53 | 9.16 | 7.03 | CC[C@H]1OC(=O)CC(O)[C@H](C)[C@@H](O[C@@H]2O[C@H](C)C[C@H](N(C)C)[C@H]2O)[C@@H](CCN(C)CCCN(C)C(=O)[C@H](C)N)C[C@@H](C)C(=O)/C=C/C(C)=C/[C@@H]1C (stereo partly specified) |  |  | 
16 |  | 1.446 | 0.016 | 0.86 |  |  | 8.83 | CCC1OC(=O)CC(O)C(C)C(O[C@@H]2O[C@H](C)C[C@H](N(C)C)[C@H]2O)C(CC=O)CC(C)C(=O)/C=C/C(C)=C/C1C (stereo partly specified) |  |  | 
17 | 4.12 | 3.481 | 1.161 | 0.43 | 9.72 |  | 8.53 | CC[C@H]1OC(=O)CC(O)[C@H](C)[C@@H](O[C@@H]2O[C@H](C)C[C@H](N(C)C)[C@H]2O)[C@@H](CCNCC(C)(C)CO)C[C@@H](C)C(=O)/C=C/C(C)=C/[C@@H]1C (stereo partly specified) |  |  | 
18 | 3.22 | 4.887 | 2.157 | 0.19 | 8.88 | 10.1 | 7.97 | CC[C@H]1OC(=O)CC(O)[C@H](C)[C@@H](O[C@@H]2O[C@H](C)C[C@H](N(C)C)[C@H]2O)[C@@H](CCNCCCN(C)C)C[C@@H](C)C(=O)/C=C/C(C)=C/[C@@H]1C (stereo partly specified) |  |  | 
19 | 3.53 | 3.099 | 1.189 | 0.23 | 9.31 |  | 8.56 | CC[C@H]1OC(=O)CC(O)[C@H](C)[C@@H](O[C@@H]2O[C@H](C)C[C@H](N(C)C)[C@H]2O)[C@@H](CCNC2C(O)CCCC2O)C[C@@H](C)C(=O)/C=C/C(C)=C/[C@@H]1C (stereo partly specified) |  |  | 
